{"source": "paper PMC7774326", "about": "“Inhibition of Soybean 15-Lipoxygenase and Human 5-Lipoxygenase by Extracts of Leaves, Stem Bark, Phenols and Catechols Isolated From Lithraea caustica (Anacardiaceae)” (Frontiers in Pharmacology, 2020)", "key": {"5-hLOX": {"test_system": "5-hLOX", "parameters": "method as in Sadik et al., 2003", "settings": "known flavonoid inhibitors of 5-hLOX; ref Sadik et al., 2003; cited from earlier work"}, "[1]": {"target": "T1, 15 soybean lipoxygenase (15-sLOX) (Glycine max, UniProt P08170)", "T1 construct": "purchased Cayman Chemical 60712", "T1 sequence (P08170 1-839)": "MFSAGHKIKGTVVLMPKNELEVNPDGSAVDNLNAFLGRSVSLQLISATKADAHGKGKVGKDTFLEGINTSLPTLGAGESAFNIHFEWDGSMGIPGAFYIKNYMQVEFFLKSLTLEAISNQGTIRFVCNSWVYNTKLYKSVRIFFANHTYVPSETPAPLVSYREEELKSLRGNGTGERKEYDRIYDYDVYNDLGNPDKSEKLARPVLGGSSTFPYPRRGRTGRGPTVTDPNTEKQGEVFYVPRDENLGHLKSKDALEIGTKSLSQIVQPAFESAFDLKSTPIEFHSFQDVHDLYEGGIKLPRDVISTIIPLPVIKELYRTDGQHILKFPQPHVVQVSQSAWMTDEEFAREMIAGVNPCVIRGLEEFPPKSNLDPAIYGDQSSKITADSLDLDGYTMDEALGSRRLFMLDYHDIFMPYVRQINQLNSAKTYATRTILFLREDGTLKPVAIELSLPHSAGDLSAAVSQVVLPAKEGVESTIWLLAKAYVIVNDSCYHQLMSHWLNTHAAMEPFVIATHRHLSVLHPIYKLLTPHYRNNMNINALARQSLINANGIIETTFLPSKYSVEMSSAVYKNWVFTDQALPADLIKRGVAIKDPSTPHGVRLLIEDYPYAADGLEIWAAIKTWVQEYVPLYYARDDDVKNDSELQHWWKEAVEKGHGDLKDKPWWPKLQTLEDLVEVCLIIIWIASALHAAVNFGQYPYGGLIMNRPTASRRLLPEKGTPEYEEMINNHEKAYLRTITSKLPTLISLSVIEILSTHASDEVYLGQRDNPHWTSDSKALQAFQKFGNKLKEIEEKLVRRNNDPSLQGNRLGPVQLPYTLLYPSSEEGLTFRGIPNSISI", "test": "In vitro assay of 15 soybean lipoxygenase inhibition", "format": "biochemical", "description": "Assays of inhibition of 15-sLOX were performed using a previous published methodology ([Tirapegui et al., 2017]), with minor modifications. In shortly, the activity of 15-sLOX (Cayman Chemical Item No. 60712) was determined following the formation of reaction products at 234 nm (ε = 25,000 M^−1cm^−1) with a Perkin-Elmer Lambda 25 UV/Vis (LabMakelaar Benelux B.V. Zuid-Holland, Nederland). All reactions were performed at a final volume of 2 ml and stirred using a magnetic bar at room temperature. The reaction medium used contained 0.1 M HEPES buffer (pH 7.4), Triton X-100 0.01%, and the linoleic acid substrate at a 10 μM concentration determine preliminary percent inhibition (% I). The concentration was determined quantitatively by allowing the enzymatic reaction to go to completion. The reaction was carried out by adding the inhibitor (sample) in methanol to the cuvette with the substrate buffer, and finally the enzyme was added. Nordihydroguaiaretic acid was used as positive control. Assays were performed in duplicate on two different days. IC50 values were determined by measuring enzyme activity at different concentrations of inhibitor dissolved in methanol; in the range of the initial velocity of the enzyme reaction. Finally, the inhibition% vs. the inhibitor concentration was plotted, giving a hyperbolic saturation curve using GraphPad Prism Demo."}, "[2]": {"target": "T2, 5 human lipoxygenase (5-hLOX) (Homo sapiens, UniProt P09917)", "T2 construct": "purchased Cayman Chemical 60402", "T2 sequence (P09917 1-674)": "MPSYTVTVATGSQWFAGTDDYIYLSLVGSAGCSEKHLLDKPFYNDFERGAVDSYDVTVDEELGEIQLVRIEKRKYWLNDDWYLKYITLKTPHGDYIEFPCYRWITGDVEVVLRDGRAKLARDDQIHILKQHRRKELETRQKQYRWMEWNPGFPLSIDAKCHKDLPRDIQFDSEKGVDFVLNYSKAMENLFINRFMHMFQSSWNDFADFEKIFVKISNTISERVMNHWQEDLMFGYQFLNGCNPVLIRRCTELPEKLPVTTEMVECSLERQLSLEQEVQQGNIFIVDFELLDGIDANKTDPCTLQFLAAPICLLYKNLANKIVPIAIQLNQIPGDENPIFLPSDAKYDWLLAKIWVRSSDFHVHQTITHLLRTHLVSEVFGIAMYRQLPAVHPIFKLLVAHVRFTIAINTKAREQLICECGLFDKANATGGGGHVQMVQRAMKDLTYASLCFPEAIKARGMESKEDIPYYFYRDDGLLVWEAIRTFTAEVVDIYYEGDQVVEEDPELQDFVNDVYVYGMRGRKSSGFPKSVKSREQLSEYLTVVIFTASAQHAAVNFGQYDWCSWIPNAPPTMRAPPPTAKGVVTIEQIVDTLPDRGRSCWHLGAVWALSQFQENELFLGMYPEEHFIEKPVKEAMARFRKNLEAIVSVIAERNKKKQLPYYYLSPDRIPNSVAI", "test": "In vitro assay of 5 human lipoxygenase inhibition", "format": "biochemical", "description": "Assays of inhibition of 5-hLOX were performed using a previous published methodology ([Vásquez-Martínez et al., 2019]), with minor modifications. In shortly, the enzyme (Cayman Chemical Item No. 60402) was diluted (1:500) in the assay buffer (HEPES 50 mM, EDTA 2 mM, ATP 10 μM and CaCl2 10 μM at pH 7.5) and mixed with 10 μM of 2′,7′-dichlorofluorescin diacetate (H2DCFDA) dye. The reaction mixture was incubated for 15 min in the assay plate. Subsequently, 33.3 μl of assay buffer was added per well, and 3.3 μl of inhibitor was added to a final concentration of 10 μM; this reaction mixture was incubated for 30 min. The reaction was started by addition of AA (3.3 μM) and was incubated for 1 h and fluorescence was read in a multimode detector Synergy™ HT Multi-Mode Microplate Reader (Biotek, Winooski, VT, United States) at 480 nm excitation/ 520 nm emission after a reaction that had proceeded for 1 h at room temperature. The IC50 values were obtained using the nonlinear curve- fitting program of Graph Pad Prism Demo."}, "[3]": {"settings": "class symbol NA, read-out: IC50 5-hLOX Inhibition"}}, "note": "Read-outs that look alike come from different tables or passages of the source.", "data": [{"smiles": "O=C(O[C@@H]1Cc2c(O)cc(O)cc2O[C@@H]1c1cc(O)c(O)c(O)c1)c1cc(O)c(O)c(O)c1", "note": "[(−)-epigallocatechin gallate]", "values": [{"measurement": "IC50", "setting": "5-hLOX", "result": 3.1, "unit": "µM"}]}, {"smiles": "CCCC/C=C\\CCCCCCCCCc1cccc(O)c1O", "note": "[Compound 2, 3-[(10Z)-pentadec-10′-en-1-yl]-catechol]", "values": [{"measurement": "IC50", "setting": "[1]", "result": 54.8, "unit": "µM"}, {"measurement": "IC50", "setting": "[2]", "result": 2.09, "unit": "µM"}]}, {"smiles": "CCCCCCCCCCCCCCCc1cccc(O)c1O", "note": "[Compound 3, 3-n-pentadecylcatechol]", "values": [{"measurement": "IC50", "setting": "[1]", "result": 55.3, "unit": "µM"}, {"measurement": "IC50", "setting": "[2]", "result": 2.74, "unit": "µM"}]}, {"smiles": "CCCCCCCCCCCCCCCc1cccc(OC(C)=O)c1OC(C)=O", "note": "[Compound 5]", "values": [{"measurement": "IC50", "setting": "[1]", "result": "> 124", "unit": "µM"}, {"measurement": "IC50", "setting": "[2]; [3]", "result": "> 124", "unit": "µM"}]}, {"smiles": "Oc1cc(O)c2c(c1)O[C@H](c1ccc(O)c(O)c1)[C@H](O)C2", "note": "[(−)-epicatechin]", "values": [{"measurement": "IC50", "setting": "5-hLOX", "result": 22, "unit": "µM"}]}, {"smiles": "CCCCC=CCCCCCCCCCc1cccc(OC(C)=O)c1OC(C)=O", "note": "[Compound 4]", "values": [{"measurement": "IC50", "setting": "[1]", "result": "> 124", "unit": "µM"}, {"measurement": "IC50", "setting": "[2]; [3]", "result": "> 124", "unit": "µM"}]}, {"smiles": "O=c1c(O)c(-c2ccc(O)c(O)c2)oc2cc(O)cc(O)c12", "note": "[quercetin]", "values": [{"measurement": "IC50", "setting": "5-hLOX", "result": 0.6, "unit": "µM"}]}]}
